Converted amounts (≈) assume the structure as drawn. “And” between values parts separate entries of the source, which are not always exact repeats. Identical values can stand only once.
Tests used:
C. albicans (ATCC 10231) [1] = experiment: Microdilution MIC90, strain A; assay type: cell-based; conditions: strain A; for MIC90: 24 h, yeast, 24 h at 37 °C, triplicate
C. krusei (ATCC 6258) = experiment: Microdilution MIC90, strain B; assay type: cell-based; conditions: for MIC90: 24 h, yeast, 24 h at 37 °C, triplicate
C. glabrata (ATCC 90030) = experiment: Microdilution MIC90, strain C; assay type: cell-based; conditions: 24 h, yeast, 24 h at 37 °C, triplicate
[2] = test system: C. parapsilosis (ATCC 22019); experiment: Microdilution MIC90, strain D; assay type: cell-based; conditions: 24 h
[3] = test system: C. tropicalis (PTCC 5028); experiment: Microdilution MIC90, strain E; assay type: cell-based; conditions: 24 h
[4] = test system: Asp. nidulans (PTCC 5014); experiment: Microdilution MIC90, strain F; assay type: cell-based, Aspergillus nidulans; conditions: Aspergillus nidulans, PTCC5014, 48 h, filamentous fungi, 48 h at 37 °C, triplicate
[5] = test system: Asp. flavus (ATCC 204304); experiment: Microdilution MIC90, strain G; assay type: cell-based, Aspergillus flavus; conditions: filamentous fungi, 48 h at 37 °C, triplicate
[6] = test system: Asp. fumigatus (PTCC 5009); experiment: Microdilution MIC90, strain H; assay type: cell-based; conditions: Aspergillus fumigatus, PTCC5009, 48 h, filamentous fungi, 48 h at 37 °C, triplicate
Asp. niger (PTCC 5154) = experiment: Microdilution MIC90, strain I; assay type: cell-based, Aspergillus niger; conditions: Aspergillus niger, PTCC5154, 48 h, filamentous fungi, 48 h at 37 °C, triplicate
Asp. terreus (PTCC 5023) = experiment: Microdilution MIC90, strain J; assay type: cell-based, Aspergillus terreus; conditions: Aspergillus terreus, PTCC5023, 48 h, filamentous fungi, 48 h at 37 °C, triplicate
T. rubrum (PTCC 5143) = experiment: Microdilution MIC90, strain K; assay type: cell-based, Trichophyton rubrum; conditions: filamentous fungi, 48 h at 37 °C, triplicate
[7] = test system: Microsporum gypseum (PTCC 5070); experiment: Microdilution MIC90, strain L; assay type: cell-based; conditions: filamentous fungi, 48 h at 37 °C, triplicate
[8] = test system: T. mentagrophytes (PTCC 5054); experiment: Microdilution MIC90, strain M; assay type: cell-based; conditions: Trichophyton mentagrophytes, PTCC5054, 48 h
[9] = test system: T. schoenleinii (PTCC 5221); experiment: Microdilution MIC90, strain N; assay type: cell-based; conditions: Trichophyton schoenleinii, PTCC5221, 48 h
M. canis (PTCC 5069) = experiment: Microdilution MIC90, strain O; assay type: cell-based; conditions: Microsporum canis, PTCC5069, 48 h
[10] = test system: FLC-resistant clinical Candida isolate R1 (C. albicans); experiment: PMIC90, FLC-resistant isolate R1; assay type: cell-based; conditions: strain R1, planktonic
[11] = test system: FLC-resistant clinical Candida isolate R2 (C. albicans); experiment: PMIC90, FLC-resistant isolate R2; assay type: cell-based; conditions: strain R2, planktonic
[12] = test system: FLC-resistant clinical Candida isolate R3 (C. albicans); experiment: PMIC90, FLC-resistant isolate R3; assay type: cell-based; conditions: strain R3, planktonic
[13] = test system: FLC-resistant clinical Candida isolate R4 (C. albicans); experiment: PMIC90, FLC-resistant isolate R4; assay type: cell-based; conditions: strain R4, planktonic
[14] = test system: FLC-resistant clinical Candida isolate R5 (C. albicans); experiment: PMIC90, FLC-resistant isolate R5; assay type: cell-based; conditions: strain R5, planktonic
[15] = test system: FLC-resistant clinical Candida isolate R6 (C. albicans); experiment: PMIC90, FLC-resistant isolate R6; assay type: cell-based; conditions: strain R6, planktonic
[16] = test system: FLC-resistant clinical Candida isolate R7 (C. glabrata); experiment: PMIC90, FLC-resistant isolate R7; assay type: cell-based; conditions: strain R7, planktonic
[17] = test system: FLC-resistant clinical C. albicans isolate (R1) biofilm; experiment: Antibiofilm MTT reduction assay, strain R1; assay type: cell-based; conditions: triplicate
[18] = test system: FLC-resistant clinical C. albicans isolate (R2) biofilm; experiment: Antibiofilm MTT reduction assay, strain R2; assay type: cell-based; conditions: triplicate
C. albicans (ATCC 10231) [19] = experiment: Time-kill assay; assay type: cell-based; conditions: 24 h period
[20] = test system: human red blood cells (hRBCs); experiment: Hemolysis assay; assay type: cell-based; conditions: 100 μg/mL, 2 h at 37 °C
PANC-1 = experiment: MTT cytotoxicity assay, PANC-1; assay type: cell-based, human; conditions: 48 h
A-431 = experiment: MTT cytotoxicity assay, A-431; assay type: cell-based, human; conditions: 48 h, MTT
HDF normal cells = experiment: MTT cytotoxicity assay, HDF; assay type: cell-based, human; conditions: HDF normal cell line, up to 100 μg/mL, 48 h
C. albicans (ATCC 10231) [21] = experiment: Membrane permeabilization assay; assay type: cell-based; conditions: 8b, 8c at 1 × MIC, 2 × MIC, 4 × MIC (0.5, 1, 2 μg/mL); AMB 1 μg/mL; 3 h at 28 °C
C. albicans (ATCC 10231) [22] = experiment: Murine model of systemic candidiasis; assay type: in vivo; conditions: neutropenic mice (n = 5), 15 mg/kg oral gavage, left kidney tissue
[23] = test system: FLC-resistant clinical Candida isolates (R1–R7); experiment: PMIC, seven FLC-resistant clinical Candida isolates; assay type: cell-based; conditions: read-out: MIC (growth inhibition concentrations)
[24] = test system: dermatophyte isolates K–O; experiment: Microdilution MIC, dermatophyte isolates K–O; assay type: cell-based
[25] = Aspergillus flavus, ATCC204304, 48 h
[26] = Trichophyton rubrum, PTCC5143, 48 h

SMILES	MIC90 (C. albicans (ATCC 10231) [1]) [µg/mL]	MIC90 (C. krusei (ATCC 6258)) [µg/mL]	MIC90 (C. glabrata (ATCC 90030)) [µg/mL]	MIC90 [2] [µg/mL]	MIC90 [3] [µg/mL]	MIC90 [4] [µg/mL]	MIC90 [5, 25] [µg/mL]	MIC90 [6] [µg/mL]	MIC90 (Asp. niger (PTCC 5154)) [µg/mL]	MIC90 (Asp. terreus (PTCC 5023)) [µg/mL]	MIC90 (T. rubrum (PTCC 5143); [26]) [µg/mL]	MIC90 [8] [µg/mL]	MIC90 [9] [µg/mL]	MIC90 (M. canis (PTCC 5069)) [µg/mL]	PMIC90 [10] [µg/mL]	PMIC90 [11] [µg/mL]	PMIC90 [12] [µg/mL]	PMIC90 [13] [µg/mL]	PMIC90 [14] [µg/mL]	kidney fungal burden, CFU/g (mean ± SD) (C. albicans (ATCC 10231) [22])	also measured
Cc1ccc(NC(=O)Nc2nnc(SCC(O)(Cn3cncn3)c3ccc(F)cc3F)s2)cc1Cl (stereo not drawn) [Compound 8r, 1-(3-Chloro-4-methylphenyl)-3-(5-((2-(2,4-difluorophenyl)-2-hydroxy-3-(1H-1,2,4-triazol-1-yl)propyl)thio)-1,3,4-thiadiazol-2-yl)urea]	64 (≈ 119 µM)	32 (≈ 59.5 µM)	32 (≈ 59.5 µM)	16 (≈ 29.7 µM)	64 (≈ 119 µM)	8 (≈ 14.9 µM)	2 to 4 (≈ 3.72 to 7.43 µM)	32 (≈ 59.5 µM)	32 (≈ 59.5 µM)	16 (≈ 29.7 µM)	2 to 4 (≈ 3.72 to 7.43 µM)	16 (≈ 29.7 µM)	32 (≈ 59.5 µM)	32 (≈ 59.5 µM)	–	–	–	–	–	–	MIC90 [5]: 4 μg·mL^–1; MIC90 (T. rubrum (PTCC 5143)): 4 μg·mL^–1; MIC90 [7]: 4 μg·mL^–1
O=C(Nc1ccc(F)cc1)Nc1nnc(SCC(O)(Cn2cncn2)c2ccc(F)cc2F)s1 (stereo not drawn) [Compound 8c, 1-(5-((2-(2,4-Difluorophenyl)-2-hydroxy-3-(1H-1,2,4-triazol-1-yl)propyl)thio)-1,3,4-thiadiazol-2-yl)-3-(4-fluorophenyl)urea]	0.5 (≈ 0.985 µM)	0.5 (≈ 0.985 µM)	0.5 (≈ 0.985 µM)	2 (≈ 3.94 µM)	0.5 (≈ 0.985 µM)	16 (≈ 31.5 µM)	16 (≈ 31.5 µM)	0.5 (≈ 0.985 µM)	0.5 (≈ 0.985 µM)	0.5 (≈ 0.985 µM)	4 (≈ 7.88 µM)	2 (≈ 3.94 µM)	16 (≈ 31.5 µM)	16 (≈ 31.5 µM)	0.5	1	2	2	2	438 CFU/g and 438 ± 54.8 ^b CFU/g	fold greater potency than that of FLC (C. albicans (ATCC 10231) [1]; from MIC values): 32 fold; fold greater potency than that of FLC (C. krusei (ATCC 6258); from MIC values): 32 fold; PMIC90 [15]: 2 µg/mL; PMIC90 [16]: 2 µg/mL; SMIC90 (sessile minimum inhibitory concentration that reduced the metabolic activity of biofilms by 90%) [17]: 1 µg/mL; SMIC90 (sessile minimum inhibitory concentration that reduced the metabolic activity of biofilms by 90%) [18]: 1 µg/mL; time-kill effect at 4 × MIC (C. albicans (ATCC 10231) [19]; at 4 × MIC (2 μg/mL for 8b, 8c; 64 μg/mL for FLC)): high fungicidal effect; time-kill effect at MIC (C. albicans (ATCC 10231) [19]; at MIC (0.5 μg/mL)): fungistatic effect; hemolysis (in words) [20]: limited hemolysis; cell survival (PANC-1; PANC-1, 100 μg/mL): > 40%; toxicity (in words) (PANC-1; PANC-1, at 30 and 60 μg/mL): no toxicity; toxicity (in words) (A-431; A-431, 100 μg/mL): some toxicity levels; toxicity (in words) (A-431; A-431, up to 60 μg/mL): no toxicity; toxicity (in words) (HDF normal cells): none of the active compounds displayed toxicity; cellular uptake of the PI dye (C. albicans (ATCC 10231) [21]): none of our compounds 8b and 8c (at 1 × MIC, 2 × MIC, or 4 × MIC) induced the cellular uptake of the PI dye; MIC [23]: 0.25 to 2 µg/mL (≈ 0.493 to 3.94 µM)
C[C@@H](c1ncncc1F)[C@](O)(Cn1cncn1)c1ccc(F)cc1F [VOR, voriconazole, reference compound]	–	–	–	–	–	–	–	–	–	–	–	–	–	–	–	–	–	–	–	318 CFU/g and 318 ± 66.5 ^b CFU/g	–
OC(Cn1cncn1)(Cn1cncn1)c1ccc(F)cc1F [FLC, Fluconazole, reference compound]	16 (≈ 52.2 µM)	16 (≈ 52.2 µM)	16 (≈ 52.2 µM)	4 (≈ 13.1 µM)	4 (≈ 13.1 µM)	–	2 (≈ 6.53 µM)	4 (≈ 13.1 µM)	4 (≈ 13.1 µM)	4 (≈ 13.1 µM)	1 (≈ 3.27 µM)	4 (≈ 13.1 µM)	2 (≈ 6.53 µM)	1 (≈ 3.27 µM)	>64	>64	>64	>64	>64	512 CFU/g and 512 ± 63.5 ^b CFU/g	PMIC90 [15]: >64 µg/mL; PMIC90 [16]: >64 µg/mL; time-kill effect at 4 × MIC (C. albicans (ATCC 10231) [19]; […]; 64 μg/mL for FLC)): no significant effect; MIC [23]: ≥ 64 µg/mL; MIC [24]: 1 to 4 µg/mL (≈ 3.27 to 13.1 µM)
